As a reminder, the inhibition is the relative decrease from the control value, in per cent.

The target of assay [1] is PI3K-δ (PI3K(p1108/p857) (h)) (Homo sapiens, UniProt O00329). The assay can be described thus: Evaluation of inhibitory activity against PI3K-δ (HTRF kinase assay). The format is biochemical. Conditions: for inhibition at 0.01 µM: compound concentration 0.01 μM, read-out: EXP_VALUE(% Inhibition) PI3K-δ 0.01 μM; for inhibition at 0.1 µM: compound concentration 0.1 μM, read-out: EXP_VALUE(% Inhibition) PI3K-δ 0.1 μM. The procedure, abridged:
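HTRF read-out (665/620 nm ratio ×10000) used Eu-labelled anti-GST, GST-tagged GRP1 PH domain and streptavidin-allophycocyanin after EDTA/PIP3 stop.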
Background: TR-FRET usually uses a lanthanide donor and a delayed reading to cut background.

For assay [2], the target named is DNA-PK(h) (Homo sapiens, UniProt P78527). In words: Evaluation of inhibitory activity against DNA-PK (HTRF kinase assay, GST-cMyc-p53 substrate). Format: biochemical. Conditions: for inhibition at 0.01 µM: compound concentration 0.01 μM, read-out: EXP_VALUE(% Inhibition) DNA-PK(h) 0.01 μM; for inhibition at 0.1 µM: compound concentration 0.1 μM, read-out: EXP_VALUE(% Inhibition) DNA-PK(h) 0.1 μM. The procedure, abridged:
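Human DNA-PK with 50 μM GST-cMyc-p53 substrate; reaction started with Mg/ATP, run 30 min at room temperature, stopped with EDTA. Phospho-Ser15 p53 detected by HTRF (Eu anti-phospho-Ser15, d2 anti-GST), signal = 10000×(Em 665/Em 620).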

Sequence of PI3K-δ (PI3K(p1108/p857) (h)) (O00329 whole entry, the tested form may be a part): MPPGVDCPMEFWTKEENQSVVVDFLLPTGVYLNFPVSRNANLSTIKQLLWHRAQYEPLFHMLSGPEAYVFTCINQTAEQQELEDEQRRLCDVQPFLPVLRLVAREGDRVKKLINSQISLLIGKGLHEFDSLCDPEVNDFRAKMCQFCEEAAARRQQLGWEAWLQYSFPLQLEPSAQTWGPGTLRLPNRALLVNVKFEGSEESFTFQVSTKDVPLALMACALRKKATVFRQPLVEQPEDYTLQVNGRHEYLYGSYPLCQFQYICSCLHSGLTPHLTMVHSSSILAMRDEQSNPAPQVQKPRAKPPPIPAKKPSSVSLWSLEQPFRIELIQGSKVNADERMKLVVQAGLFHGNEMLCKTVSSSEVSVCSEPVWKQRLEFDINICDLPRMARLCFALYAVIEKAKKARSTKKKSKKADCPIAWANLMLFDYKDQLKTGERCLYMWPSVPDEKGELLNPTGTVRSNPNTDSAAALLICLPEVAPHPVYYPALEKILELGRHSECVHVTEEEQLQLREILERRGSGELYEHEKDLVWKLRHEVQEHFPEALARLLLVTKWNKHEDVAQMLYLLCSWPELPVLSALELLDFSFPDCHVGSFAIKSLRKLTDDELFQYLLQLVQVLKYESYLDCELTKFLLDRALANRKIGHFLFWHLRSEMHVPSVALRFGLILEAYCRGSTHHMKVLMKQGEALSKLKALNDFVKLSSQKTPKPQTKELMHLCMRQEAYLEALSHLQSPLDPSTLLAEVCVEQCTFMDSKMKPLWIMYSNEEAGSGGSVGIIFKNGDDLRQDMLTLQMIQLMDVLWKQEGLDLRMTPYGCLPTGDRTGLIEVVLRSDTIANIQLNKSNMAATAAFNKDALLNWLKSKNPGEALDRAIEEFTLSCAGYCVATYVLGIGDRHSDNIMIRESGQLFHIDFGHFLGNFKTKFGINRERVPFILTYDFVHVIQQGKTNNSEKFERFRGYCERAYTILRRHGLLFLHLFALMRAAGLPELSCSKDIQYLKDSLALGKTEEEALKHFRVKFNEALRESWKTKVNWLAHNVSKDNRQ
Sequence of PI3K-δ (PI3K(p1108/p857) (h)) (P27986 whole entry partner, the tested form may be a part): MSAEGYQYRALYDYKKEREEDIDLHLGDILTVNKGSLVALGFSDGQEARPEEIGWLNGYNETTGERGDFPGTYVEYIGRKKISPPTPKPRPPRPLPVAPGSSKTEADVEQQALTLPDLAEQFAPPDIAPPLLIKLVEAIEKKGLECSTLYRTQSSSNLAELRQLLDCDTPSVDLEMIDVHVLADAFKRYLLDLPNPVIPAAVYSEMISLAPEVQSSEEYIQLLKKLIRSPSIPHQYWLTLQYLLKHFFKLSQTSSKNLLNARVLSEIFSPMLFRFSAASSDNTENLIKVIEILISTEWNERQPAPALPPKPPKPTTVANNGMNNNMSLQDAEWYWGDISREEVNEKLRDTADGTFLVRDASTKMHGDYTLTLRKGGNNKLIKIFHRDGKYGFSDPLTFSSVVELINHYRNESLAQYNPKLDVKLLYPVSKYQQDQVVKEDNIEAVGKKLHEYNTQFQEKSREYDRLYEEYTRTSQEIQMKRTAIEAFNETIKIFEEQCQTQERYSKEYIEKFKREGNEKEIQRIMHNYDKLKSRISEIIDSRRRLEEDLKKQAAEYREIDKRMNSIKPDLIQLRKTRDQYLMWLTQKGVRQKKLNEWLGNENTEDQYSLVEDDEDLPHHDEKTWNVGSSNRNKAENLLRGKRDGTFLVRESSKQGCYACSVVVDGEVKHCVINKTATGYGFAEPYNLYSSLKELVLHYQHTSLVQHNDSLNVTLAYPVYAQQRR

As to `C[C@H](Nc1ncnc2[nH]ccc(=O)c12)c1c(Cl)c2cccc(-c3cnc(C(F)(F)F)cn3)c2c(=O)n1-c1ccccc1` [Example 51, (S)-4-((1-(4-chloro-1-oxo-2-phenyl-8-(5-(trifluoromethyl)pyrazin-2-yl)-1,2-dihydroisoquinolin-3-yl)ethyl)amino)pyrido[2,3-d]pyrimidin-5(8H)-one], the inhibition at 0.01 µM in assay [1] is 6%; in assay [2], -15%.
Take `C[C@H](Nc1ncnc2[nH]ccc(=O)c12)c1c(Cl)c2cccc(-c3ncc(C(F)(F)F)cn3)c2c(=O)n1-c1ccccc1` [Example 52, (S)-4-((1-(4-chloro-1-oxo-2-phenyl-8-(5-(trifluoromethyl)pyrimidin-2-yl)-1,2-dihydroisoquinolin-3-yl)ethyl)amino)pyrido[2,3-d]pyrimidin-5(8H)-one]: the inhibition at 0.01 µM is 13% in assay [1] and -2% in assay [2].
On the same counts, the results for `C[C@H](Nc1ncnc2[nH]ccc(=O)c12)c1c(Cl)c2cccc(-c3ncc(F)cn3)c2c(=O)n1-c1ccccc1` [Example 53, (S)-4-((1-(4-chloro-8-(5-fluoropyrimidin-2-yl)-1-oxo-2-phenyl-1,2-dihydroisoquinolin-3-yl)ethyl)amino)pyrido[2,3-d]pyrimidin-5(8H)-one] are 11% and -3%.
On the same counts, the results for `C[C@H](Nc1ncnc2[nH]ccc(=O)c12)c1c(Cl)c2cccc(-c3cnc(C4CCC4)nc3)c2c(=O)n1-c1ccccc1` [Example 54, (S)-4-((1-(4-chloro-8-(2-cyclobutylpyrimidin-5-yl)-1-oxo-2-phenyl-1,2-dihydroisoquinolin-3-yl)ethyl)amino)pyrido[2,3-d]pyrimidin-5(8H)-one] are 55% and 42%.
On to `COCc1ncc(-c2cccc3c(Cl)c([C@H](C)Nc4ncnc5[nH]ccc(=O)c45)n(-c4ccccc4)c(=O)c23)cn1` [Example 55, (S)-4-((1-(4-chloro-8-(2-(methoxymethyl)pyrimidin-5-yl)-1-oxo-2-phenyl-1,2-dihydroisoquinolin-3-yl)ethyl)amino)pyrido[2,3-d]pyrimidin-5(8H)-one], for which the inhibition at 0.01 µM was 59% in assay [1] and 44% in assay [2].
Turning to `C[C@H](Nc1ncnc2[nH]ccc(=O)c12)c1c(Cl)c2cccc(-c3cnc(N)nc3)c2c(=O)n1-c1ccccc1` [Example 56, (S)-4-((1-(8-(2-aminopyrimidin-5-yl)-4-chloro-1-oxo-2-phenyl-1,2-dihydroisoquinolin-3-yl)ethyl)amino)pyrido[2,3-d]pyrimidin-5(8H)-one], the inhibition at 0.01 µM in assay [1] was found to be 81%; in assay [2], 78%.
For `CC(O)c1ccc(-c2cccc3c(Cl)c([C@H](C)Nc4ncnc5[nH]ccc(=O)c45)n(-c4ccccc4)c(=O)c23)cc1` (stereo partly drawn) [Example 57, 4-(((1S)-1-(4-chloro-8-(4-(1-hydroxyethyl)phenyl)-1-oxo-2-phenyl-1,2-dihydroisoquinolin-3-yl)ethyl)amino)pyrido[2,3-d]pyrimidin-5(8H)-one] the same measures were 97% and 80%.
For `Cc1cc(-c2cccc3c(Cl)c([C@H](C)Nc4ncnc5[nH]ccc(=O)c45)n(-c4ccccc4)c(=O)c23)cnc1O` [Example 58, (S)-4-((1-(4-chloro-8-(6-hydroxy-5-methylpyridin-3-yl)-1-oxo-2-phenyl-1,2-dihydroisoquinolin-3-yl)ethyl)amino)pyrido[2,3-d]pyrimidin-5(8H)-one] the same measures were 95% and 87%.
On the same counts, the results for `C[C@H](Nc1ncnc2[nH]ccc(=O)c12)c1c(Cl)c2cccc(-c3cncnc3C3CCCC3)c2c(=O)n1-c1ccccc1` [Example 59, (S)-4-((1-(4-chloro-8-(4-cyclopentylpyrimidin-5-yl)-1-oxo-2-phenyl-1,2-dihydroisoquinolin-3-yl)ethyl)amino)pyrido[2,3-d]pyrimidin-5(8H)-one] are 70% and 32%.
Turning to `C[C@H](Nc1ncnc2[nH]ccc(=O)c12)c1c(Cl)c2cccc(-c3ccc4c(c3)OCO4)c2c(=O)n1-c1ccccc1` [Example 60, (S)-4-((1-(8-(benzo[d][1,3]dioxol-5-yl)-4-chloro-1-oxo-2-phenyl-1,2-dihydroisoquinolin-3-yl)ethyl)amino)pyrido[2,3-d]pyrimidin-5(8H)-one], the inhibition at 0.01 µM in assay [1] was found to be 94%; in assay [2], 74%.
`COc1ncc(-c2cccc3c(Cl)c([C@H](C)Nc4ncnc5[nH]ccc(=O)c45)n(-c4ccccc4)c(=O)c23)cc1[N+](=O)[O-]` [Example 61, (S)-4-((1-(4-chloro-8-(6-methoxy-5-nitropyridin-3-yl)-1-oxo-2-phenyl-1,2-dihydroisoquinolin-3-yl)ethyl)amino)pyrido[2,3-d]pyrimidin-5(8H)-one]: the results for the inhibition at 0.01 µM in assay [1] and in assay [2] were 89% and 67%, respectively.
Regarding `C[C@H](Nc1ncnc2[nH]ccc(=O)c12)c1c(Cl)c2cccc(-c3ccccc3)c2c(=O)n1-c1ccccc1` [Example 62, (S)-4-((1-(4-chloro-1-oxo-2,8-diphenyl-1,2-dihydroisoquinolin-3-yl)ethyl)amino)pyrido[2,3-d]pyrimidin-5(8H)-one], in assay [1], the inhibition at 0.01 µM worked out at 99% and the inhibition at 0.1 µM was determined as 109%. Besides, in assay [2], the inhibition at 0.01 µM is 54% and the inhibition at 0.1 µM stood at 89%.
For `C[C@H](Nc1ncnc2[nH]ccc(=O)c12)c1c(Cl)c2cccc(-c3ccc(F)cc3)c2c(=O)n1-c1ccccc1` [Example 63, (S)-4-((1-(4-chloro-8-(4-fluorophenyl)-1-oxo-2-phenyl-1,2-dihydroisoquinolin-3-yl)ethyl)amino)pyrido[2,3-d]pyrimidin-5(8H)-one] the same measures were 95%, 96%, 44% and 84%.
On the same counts, the results for `COc1ccc(-c2cccc3c(Cl)c([C@H](C)Nc4ncnc5[nH]ccc(=O)c45)n(-c4ccccc4)c(=O)c23)cc1` [Example 64, (S)-4-((1-(4-chloro-8-(4-methoxyphenyl)-1-oxo-2-phenyl-1,2-dihydroisoquinolin-3-yl)ethyl)amino)pyrido[2,3-d]pyrimidin-5(8H)-one] are 93%, 101%, 51% and 86%.
For `C[C@H](Nc1ncnc2[nH]ccc(=O)c12)c1c(C2CC2)c2cccc(Cl)c2c(=O)n1-c1ccccc1` [Example 65, (S)-4-((1-(8-chloro-4-cyclopropyl-1-oxo-2-phenyl-1,2-dihydroisoquinolin-3-yl)ethyl)amino)pyrido[2,3-d]pyrimidin-5(8H)-one] the same measures were 89%, 110%, 58% and 90%.
On to `C[C@H](Nc1ncnc2[nH]ccc(=O)c12)c1c(Cl)c2cccc(C3CC3)c2c(=O)n1-c1ccccc1` [Example 66, (S)-4-((1-(4-chloro-8-cyclopropyl-1-oxo-2-phenyl-1,2-dihydroisoquinolin-3-yl)ethyl)amino)pyrido[2,3-d]pyrimidin-5(8H)-one], for which, in assay [1], the inhibition at 0.01 µM is 72% and the inhibition at 0.1 µM is 103%. For the same molecule, in assay [2], the inhibition at 0.01 µM amounted to 59% and the inhibition at 0.1 µM stood at 92%.

The record behind these values is patent US20230072683A1, “PYRIDO-PYRIMIDIN DERIVATIVES AND PHARMACEUTICAL COMPOSITION, FOR USE IN PREVENTING OR TREATING PI3 KINASE RELATED DISEASES, COMPRISING SAME AS ACTIVE INGREDIENT” (BORYUNG PHARMACEUTICAL CO., LTD, priority 2019, published 2023).
